Assay results: US20220324835A1 (Nurix Therapeutics, Inc., priority 2018, published 2022)
Where two headings read alike, the source gives them in different places.

Tests used:
T-cell [1] = assay: IL-2 secretion from T-cells co-stimulated with anti-CD3 and anti-CD28 antibody (Biological Example 2); format: cell-based, human; conditions: Homo sapiens, T-cell, read-out: IL-2 secretion Anti-CD3/Anti-CD28 stimulation; for fold induction at 0.3 µM: 0.3 μM Cbl-b inhibitor; for fold induction at 1 µM: 1 μM Cbl-b inhibitor; for fold induction at 4 µM: 4 μM Cbl-b inhibitor
Method in brief: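 No assay protocol given; T-cells stimulated with anti-CD3 alone or anti-CD3 plus anti-CD28, with or without Cbl-b inhibitor. Activation read as IL-2 secretion or CD25 surface staining, expressed as fold over baseline from uninhibited cells […].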

T-cell [2] = assay: IL-2 secretion from T-cells stimulated with anti-CD3 antibody alone (Biological Example 2); format: cell-based, human; conditions: T-cell, read-out: IL-2 secretion Anti-CD3 stimulation; for fold induction at 1 µM: 1 μM Cbl-b inhibitor; for fold induction at 8 µM: 8 μM Cbl-b inhibitor
Cbl-b [3] = target: T1, Cbl-b (Homo sapiens, UniProt Q13191); assay: Cbl-b inhibition assay (Cbl-b activity assay, FRET, Biological Example 1; 100 mM NaCl, 60 nM Src kinase); format: biochemical; conditions: upper bound stated in text lists; read-out: IC50 values in the Cbl-b inhibition assay of Biological Example 1
T1 sequence (Q13191 36-427): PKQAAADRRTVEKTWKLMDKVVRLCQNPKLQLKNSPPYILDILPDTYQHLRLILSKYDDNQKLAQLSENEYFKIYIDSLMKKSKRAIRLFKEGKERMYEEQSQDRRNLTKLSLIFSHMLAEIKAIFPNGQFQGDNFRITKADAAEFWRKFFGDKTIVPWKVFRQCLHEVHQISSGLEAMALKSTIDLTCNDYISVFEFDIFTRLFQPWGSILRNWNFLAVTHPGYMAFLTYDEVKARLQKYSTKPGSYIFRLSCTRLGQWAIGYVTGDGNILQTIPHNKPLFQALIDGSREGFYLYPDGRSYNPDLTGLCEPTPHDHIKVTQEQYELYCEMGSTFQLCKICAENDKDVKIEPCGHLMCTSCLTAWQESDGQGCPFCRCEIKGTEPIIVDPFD
Method in brief: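 Here, the E2 UbcH5B, irreversibly linked to Bodipy-fluorescein ubiquitin, binds Cbl-b once Src kinase phosphorylates it; Cbl-b carries an N-terminal biotinylated Avi-tag captured by streptavidin-terbium. An absent FRET signal indicates inhibition.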

T-cell [4] = assay: CD25 cell surface staining on T-cells stimulated with anti-CD3 antibody alone (Biological Example 2); format: cell-based, human; conditions: T-cell, read-out: CD25 staining Anti-CD3 stimulation; for fold induction at 1 µM: 1 μM Cbl-b inhibitor; for fold induction at 8 µM: 8 μM Cbl-b inhibitor
Cbl-b [5] = target: T1, Cbl-b; assay: Cbl-b activity assay (Cbl-b inhibition assay), TR-FRET of Cbl-b interaction with UbcH5B-Ub; format: biochemical; conditions: assay buffer with 100 mM NaCl, 60 nM Src kinase; read-out: Cbl-b activity IC50
Method in brief: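 TR-FRET readout of Cbl-b binding to Bodipy-fluorescein N-terminally labeled Ub conjugated to UbcH5B C85K, measured with compound present. After compound incubation, 60 nM Src kinase with 1 mM ATP and 5 mM MgCl2 (final) was added for 1.5 h, then a further 1 h incubation; asterisked values used 50 mM NaCl buffer and 30 nM Src.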

[6] = fold change over baseline, primary human total T-cells
[7] = fold change over baseline (anti-CD3/anti-CD28 stimulated T-cells without inhibitor)
[8] = Homo sapiens, fold change over baseline (anti-CD3/anti-CD28 stimulated T-cells without inhibitor)

Row | Structure (SMILES) | fold induction at 0.3 µM (T-cell [1]; [6]) | fold induction at 1 µM (T-cell [1]; [6]) | fold induction at 4 µM (T-cell [1]; [6]) | fold induction at 1 µM (T-cell [2]; [6]) | fold induction at 8 µM (T-cell [2]; [6]) | IC50 (Cbl-b [3]) [nM] | fold induction at 1 µM (T-cell [4]; [6]) | fold induction at 8 µM (T-cell [4]; [6]) | IC50 (Cbl-b [5]) [nM] | fold induction at 0.3 µM (T-cell [1]; [7]) | fold induction at 1 µM (T-cell [1]; [7]) | fold induction at 1 µM (T-cell [2]; [8]) | fold induction at 1 µM (T-cell [4]; [8])
1 | C[C@H](Cc1nncn1C)c1cccc(N2Cc3c(cccc3C(F)(F)F)C2=O)c1 [Compound 255a, (R)-2-(3-(1-(4-methyl-4H-1,2,4-triazol-3-yl)propan-2-yl)phenyl)-4-(trifluoromethyl)isoindolin-1-one] | 1.01 to 2.5 | 2.51 to 5 | 5 to 7.5 | 0.051 to 0.1 | > 0.201 | ≤ 100 | 0.601 to 0.8 | > 1 | < 100 | – | – | – | –
2 | Cn1cnnc1[C@H](F)C1(c2cccc(N3Cc4c(cc(CN5CCC(F)CC5)cc4C(F)(F)F)C3=O)c2)COC1 [Example 670b, (R)-2-(3-(3-(fluoro(4-methyl-4H-1,2,4-triazol-3-yl)methyl)oxetan-3-yl)phenyl)-6-((4-fluoropiperidin-1-yl)methyl)-4-(trifluoromethyl)isoindolin-1-one] | – | – | – | – | – | ≤ 100 | – | – | < 100 | > 7.5 | > 7.5 | > 0.201 | > 1
3 | C[C@H](Cc1nncn1C)c1cccc(NC(=O)c2nc3c(C(F)(F)F)cccc3[nH]2)c1 [Compound 196, N-[3-[(1R)-1-methyl-2-(4-methyl-1,2,4-triazol-3-yl)ethyl]phenyl]-4-(trifluoromethyl)-1H-benzimidazole-2-carboxamide] | 2.51 to 5 | 5 to 7.5 | > 7.5 | > 0.201 | > 0.201 | ≤ 100 | > 1 | > 1 | < 100 | – | – | – | –
4 | Cc1cc(C(=O)Nc2cccc(C3(Cc4nncn4C)COC3)c2)nc(C2CC2)n1 [Compound 336, 2-cyclopropyl-6-methyl-N-(3-(3-((4-methyl-4H-1,2,4-triazol-3-yl)methyl)oxetan-3-yl)phenyl)pyrimidine-4-carboxamide] | 5 to 7.5 | > 7.5 | > 7.5 | > 0.201 | > 0.201 | ≤ 100 | > 1 | > 1 | < 100 | – | – | – | –
5 | C[C@H](Cc1nncn1C)c1cccc(NC(=O)c2cc(C3CC3)cc(C(F)(F)F)n2)c1 [Compound 191, (R)-4-cyclopropyl-N-(3-(1-(4-methyl-4H-1,2,4-triazol-3-yl)propan-2-yl)phenyl)-6-(trifluoromethyl)picolinamide] | 2.51 to 5 | 5 to 7.5 | > 7.5 | > 0.201 | > 0.201 | ≤ 100 | > 1 | > 1 | < 100 | – | – | – | –
6 | Cn1cnnc1CC1(c2cccc(N3Cc4c(cccc4C(F)(F)F)C3=O)c2)CC1 [Compound 299, 2-(3-(1-((4-methyl-4H-1,2,4-triazol-3-yl)methyl)cyclopropyl)phenyl)-4-(trifluoromethyl)isoindolin-1-one] | 2.51 to 5 | 2.51 to 5 | 5 to 7.5 | 0.051 to 0.1 | > 0.201 | ≤ 100 | > 1 | > 1 | < 100 | – | – | – | –
7 | C[C@H](c1cc2c(c(C(F)(F)F)c1)CN(c1cccc(C3([C@H](F)c4nncn4C)COC3)c1)C2=O)N1CCC2(CC2)C1 (stereo in doubt) [Example 575, 6-((R)-1-(5-Azaspiro[2.4]heptan-5-yl)ethyl)-2-(3-(3-((S)-fluoro(4-methyl-4H-1,2,4-triazol-3-yl)methyl)oxetan-3-yl)phenyl)-4-(trifluoromethyl)isoindolin-1-one] | – | – | – | – | – | ≤ 100 | – | – | < 100 | > 7.5 | > 7.5 | > 0.201 | > 1
